As a reminder, the EC50 is the concentration that produces a half-maximal response. Usually DC50 stands for the concentration giving 50% degradation. Broadly, the IC50 is the concentration that inhibits the measured activity by half.

The subject of assay [1] is Human mammary epithelial cells (HMEC) engineered to express EGFP alone (non myc). Put plainly: 3D spheroid assay, non myc-HMEC (CellTiterGlo3D viability). It counts as cell-based. The settings on record: 120 h, 3D spheroids, 5 days with compound, read-out: Code: EC50 value in the non myc-HMEC assay. As to the method:
(§1) 3D Spheroid Experiments—HMEC
(§2) Human mammary epithelial cells (HMEC) were engineered to express either c-myc tagged with EGFP or EGFP alone (non myc) (analogous but distinct from Kessler J D et al, Science. 2012 Jan. 20; 335(6066):348-53. doi: 10.1126/science.1212728; Hsu T Y et al, Nature. 2015 Sep. 17; 525(7569):384-8. doi: 10.1038/nature14985). The engineered cells were seeded at 1000 (myc) or 4000 (non myc) cells/well in a 384 ultra-low attachment plate in a total volume of 40 µL, HMEC cell culture media (DMEM/F12+10% HI-FBS+15 mM HEPES+0.5 ug/ml Hydrocortisone+10 ug/ml Insulin+20 ng/ml EGF). Plates were spun at 1200 rpm for 5 minutes at room temperature to ensure that cells have gathered in the middle of the well and incubated at 37° C. for 48 hrs before firing with compounds. On Day 2 (48 h post seeding) cells were imaged (brightfield and EGFP fluorescence) using the Celigo imaging cytometer prior to firing compounds. For primary screens, compounds were added at three concentrations (1.25, 10 and 30 uM) in a volume of 120 nL using the ECHO acoustic dispenser and spun at 2000 rpm for 2 minutes at room temperature before incubating at 37° C. for 5 days. […] On Day 7, prior to measuring cell viability using CellTiterGlo3D, cells were imaged (brightfield and EGFP fluorescence) on the Celigo imaging cytometer. The CellTiterGlo3D reagent is added at 30uL/well and incubated at room temperature for 30mins After 30mins of incubation, luminescence readings were recorded using the Perkin Elmer EnVision reader.

The next assay addresses GSPT1 (Homo sapiens, UniProt P15170+Q96SW2). In words: Immunofluorescence assay for GSPT1 degradation in CAL-51 cells. The arrangement: CAL-51 cells were purchased from DSMZ (cat. Number ACC302); endogenous in cells; host or cells: CAL-51 (DSMZ ACC302). It counts as cell-based. The settings on record: compound treatment 6 hours. As to the method:
CAL-51 cells were purchased from DSMZ (cat. Number ACC302), sub-cultured in 90% Dulbecco's MEM (4.5 g/L glucose, Gibco 11965) +10% heat inactivated FBS (BioConcept, 2-01F136I) and incubated at 37° C., 5% CO2. For the assay, imaging microtiterplate Cell Carrier 96 Ultra (Perkin Elmer 6055302) were pre-coated with Fibronectin (Sigma F085, 300 at 0.2 μg/ml) in PBS (1000, Gibco 14190) for 45 min at room temperature, rinsed with PBS and CAL-51 cells (30K cells/well) were plated and let to adhere overnight. Cells were treated with compounds typically using a serial dilution ranging from 30 μM to 0.1 nM for 6 hours. Compounds were stored at 10 mM DMSO stocks. Vehicle (DMSO), positive (CC-885, 10 μM) and rescue controls (positive control plus 0.2 μM bortezomib) were also included at this stage. Cells were subsequently rinsed with PBS and fixed in 10% Formalin solution (50 μl, Sigma HT5011)) for 20 mins at room temperature. Following three consecutive PBS washes (100 μl), cells were permeabilized in 0.1% Triton X-100 in PBS (Sigma 93443, 50 μl) for 15 mins at room temperature. Following three further PBS washes, 50 μl blocking buffer (1% BSA, Sigma A4503, in PBS) was added for 45 min for signal-to-noise reduction. Primary antibody (human GSPT1, Sigma HPA052488) was diluted in blocking buffer (dil. 1/300, 35 μl/well) and incubated with the cells overnight at 4° C. After three PBS washes, Alexa-fluor 488 coupled secondary antibodies (Invitrogen, A32731, dil. 1/1000), Alexa-fluor 647-Phalloïdin (Invitrogen, A22287, dil. 1/200) and DAPI (Thermo, #62248, dil.1/1000) were diluted in blocking buffer and incubated with the samples for 2 hours at room temperature. After three final PBS washes, samples were conserved in 1000 PBS in the dark, until measurement. Image acquisition was performed on the Operetta High-Content Imager (Perkin-Elmer). Fluorescence intensity of Alexa-Fluor 488 (GSPT1), Alexa-Fluor 647 (Actin) and DAPI (Nucleus) were measured. For the determination of GSPT1 DC50 values, a custom algorithm implemented in the PerkinElmer image analysis software Harmony-Acapella® was developed. After user-defined setting of adjustment parameters, the analysis was run identically without human intervention for all image fields. DAPI staining of the nuclei was used to determine the location of cells using standard nuclei detection modules. Segmentation artifacts were removed by threshold-based filters for area, roundness and intensity. The outline of the cells was determined analogously from the sum of the normalized, smoothed DAPI and Actin channel, starting from each nucleus. The Alexa-Fluor 488 (GSPT1) signal intensity in each cell was finally measured, in order to obtain a Mean intensity per cell. GSPT1 degradation (DC50) was calculated after normalization to controls and data import in CDD vault Database, using non-linear regression. Activity for GSPT1 Degradation Table 3 assigns each compound a code indicating the ability for GSPT1 degradation: A, B or C. According to the code, A represents a DC50 value of ≤100 nM, B represents a DC50 value >100 nM and ≤300 nM and C represents a DC50 value of >300 nM.

Assay [2] concerns Human mammary epithelial cells (HMEC) engineered to express c-myc tagged with EGFP. In words: 3D spheroid assay, myc-HMEC (CellTiterGlo3D viability). It counts as cell-based. To be noted: Homo sapiens, HMEC, 120 h, 3D spheroids, 5 days with compound, read-out: Code: EC50 value in the myc-HMEC assay. The method, then:
as §1, §2

For assay [3], the target named is T1, Full length wild-type cereblon CRBN (Homo sapiens, UniProt Q96SW2).
T1 construct: Full length wild-type cereblon CRBN (80.0 nM, 10 μL) was incubated in assay buffer
T1 sequence (Q96SW2 whole entry): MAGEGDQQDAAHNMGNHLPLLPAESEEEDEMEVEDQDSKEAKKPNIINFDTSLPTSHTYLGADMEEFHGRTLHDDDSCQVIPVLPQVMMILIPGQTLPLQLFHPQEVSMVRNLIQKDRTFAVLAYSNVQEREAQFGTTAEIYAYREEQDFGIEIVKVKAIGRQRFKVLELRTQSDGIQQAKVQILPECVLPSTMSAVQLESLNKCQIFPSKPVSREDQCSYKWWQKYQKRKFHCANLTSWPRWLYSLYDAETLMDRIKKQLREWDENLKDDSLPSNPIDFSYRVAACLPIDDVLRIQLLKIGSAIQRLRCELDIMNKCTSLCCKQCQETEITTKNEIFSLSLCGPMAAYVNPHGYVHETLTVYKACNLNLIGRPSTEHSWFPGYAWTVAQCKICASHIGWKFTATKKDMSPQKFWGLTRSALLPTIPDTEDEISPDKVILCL
In words: Fluorescence polarization (FP) assay indicating cereblon binding. To be noted: CRBN 80.0 nM, fluorescent probe 5 nM, FP measured after 12 hours; read-out: rFP IC50. The source says:
Protocol for Fluorescent Polarization Assay
Compound activity was monitored in a fluorescence polarization (FP) homogeneous assay using 1-[5-({2-[2-(2-{[2-(2,6-dioxopiperidin-3-yl)-1,3-dioxo-2,3-dihydro-1H-isoindol-4-yl]oxy}acetamido)ethoxy]ethyl}carbamoyl)pentyl]-3,3-dimethyl-2-[(1E,3E)-5-[(2E)-1,3,3-trimethyl-5-sulfo-2,3-dihydro-1H-indol-2-ylidene]penta-1,3-dien-1-yl]-3H-indol-1-ium-5-sulfonate as a fluorescent probe. Unless otherwise stated, all reagents were purchased from Sigma Aldrich. Enzymatic reactions were conducted in Perkin-Elmer Black 384 well ProxiPlate Plus (catalogue no. 6008269) in 10 μL total volume. Full length wild-type cereblon CRBN (80.0 nM, 10 μL) was incubated in assay buffer containing 20 mM HEPES (pH 8.0), […], 0.5 mM TCEP and 0.05% Tween 20 in the presence or absence of compound (300 nL). Inhibitors were stored as 10 mM DMSO stocks in an inert environment (low humidity, dark, low oxygen, room temperature) using the Storage Pod System. Compounds and DMSO were dispensed using the Echo E5XX (Labcyte Inc. USA) to give concentrations from 300 to 0.937 or 3000 to 9.3 nM in a 12 data point curve. […] Following incubation at room temperature for […], the assay was initiated by dispensing the probe to a final concentration of 5 nM (2.5 nL of a 20 μM stock) using the Echo E5XX. FP was measured after a period of 12 hours using a Pherastar plate reader (BMG Labtech, Germany) exciting at 590 nm and measuring the amount of parallel and perpendicular light at 675 nm. The FP signal was subsequently normalized to the no-compound control (i.e., DMSO). Analysis and IC50 values were derived using Dotmatics (Dotmatics UK) software.
A general note: In fluorescence polarisation assays a small probe gives low polarisation when free and higher when bound to something large.

Where [4] appears, read: read-out: Code: activity for GSPT1 degradation (DC50).

Like-named read-outs stand apart in the source and are kept apart here.

Chain of GSPT1 (P15170 whole entry): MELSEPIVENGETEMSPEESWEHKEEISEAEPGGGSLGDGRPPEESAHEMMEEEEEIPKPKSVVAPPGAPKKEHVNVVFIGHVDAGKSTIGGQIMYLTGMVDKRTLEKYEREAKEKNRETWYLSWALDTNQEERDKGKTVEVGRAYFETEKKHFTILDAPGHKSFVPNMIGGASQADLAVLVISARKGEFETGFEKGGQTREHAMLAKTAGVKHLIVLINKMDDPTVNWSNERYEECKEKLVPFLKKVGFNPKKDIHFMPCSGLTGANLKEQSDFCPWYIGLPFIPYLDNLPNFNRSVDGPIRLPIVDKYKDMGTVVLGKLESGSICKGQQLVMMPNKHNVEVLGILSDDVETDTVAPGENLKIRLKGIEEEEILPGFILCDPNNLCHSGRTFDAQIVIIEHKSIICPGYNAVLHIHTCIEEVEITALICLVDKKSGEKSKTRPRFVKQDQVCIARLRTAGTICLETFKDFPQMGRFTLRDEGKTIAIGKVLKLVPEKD
Chain of GSPT1 (Q96SW2 whole entry): as the sequence (Q96SW2 whole entry) above
Chain of GSPT1 (Q16531 2-1140 partner limits assumed): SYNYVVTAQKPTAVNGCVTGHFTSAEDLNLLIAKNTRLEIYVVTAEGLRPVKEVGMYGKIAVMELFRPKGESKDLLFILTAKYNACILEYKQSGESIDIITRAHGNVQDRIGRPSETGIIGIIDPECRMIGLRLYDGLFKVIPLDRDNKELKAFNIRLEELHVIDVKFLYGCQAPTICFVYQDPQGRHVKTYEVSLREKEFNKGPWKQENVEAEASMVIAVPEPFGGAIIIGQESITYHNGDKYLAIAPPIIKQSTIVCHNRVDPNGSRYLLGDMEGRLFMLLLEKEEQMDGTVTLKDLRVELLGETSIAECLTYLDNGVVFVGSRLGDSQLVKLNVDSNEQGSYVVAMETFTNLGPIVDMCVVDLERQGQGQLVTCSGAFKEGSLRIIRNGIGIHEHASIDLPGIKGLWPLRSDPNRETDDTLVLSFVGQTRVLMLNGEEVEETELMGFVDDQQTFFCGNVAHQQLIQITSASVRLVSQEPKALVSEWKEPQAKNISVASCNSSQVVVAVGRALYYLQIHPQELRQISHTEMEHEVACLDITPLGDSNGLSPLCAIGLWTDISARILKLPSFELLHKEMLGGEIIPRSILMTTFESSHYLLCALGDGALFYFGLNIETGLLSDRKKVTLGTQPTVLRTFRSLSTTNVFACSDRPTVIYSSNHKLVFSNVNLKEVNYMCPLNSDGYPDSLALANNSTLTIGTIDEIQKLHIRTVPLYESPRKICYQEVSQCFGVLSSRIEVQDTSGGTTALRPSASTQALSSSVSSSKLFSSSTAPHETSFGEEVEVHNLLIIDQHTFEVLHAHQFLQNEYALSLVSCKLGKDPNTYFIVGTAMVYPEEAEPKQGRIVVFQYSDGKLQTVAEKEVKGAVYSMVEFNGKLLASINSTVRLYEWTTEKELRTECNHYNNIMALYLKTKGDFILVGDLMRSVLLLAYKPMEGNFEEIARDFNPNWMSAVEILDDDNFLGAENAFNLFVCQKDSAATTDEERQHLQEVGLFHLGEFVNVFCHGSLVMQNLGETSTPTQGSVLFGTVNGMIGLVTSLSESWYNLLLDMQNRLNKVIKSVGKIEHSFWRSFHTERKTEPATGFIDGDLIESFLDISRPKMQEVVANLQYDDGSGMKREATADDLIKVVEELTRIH

Turning to `COc1ccc(C)cc1NC(=O)NCc1ccc2c(c1)C(=O)N(C1CCC(=O)NC1=O)C2` (stereo not shown) [Compound 17], the EC50 in assay [1] is above 10000 nM; in assay [2] it was above 2000 nM. Further, the half-maximal degradation concentration (DC50) at GSPT1 (setting [4]) was above 300 nM. Moreover, in assay [3], the IC50 came out at 514 nM.
The matching figures for `COc1cccc(NC(=O)NCc2ccc3c(c2)C(=O)N(C2CCC(=O)NC2=O)C3)c1` (stereo not shown) [Compound 6]: above 10000 nM, above 2000 nM, above 300 nM and 467 nM.
The matching figures for `N#Cc1ccc(NC(=O)NCc2ccc3c(c2)C(=O)N(C2CCC(=O)NC2=O)C3)cc1` (stereo not shown) [Compound 74]: above 10000 nM, above 2000 nM, above 300 nM and 196 nM.
For `CCCNC(=O)NCc1ccc2c(c1)C(=O)N(C1CCC(=O)NC1=O)C2` (stereo not shown) [Compound 14], in that order: above 10000 nM, above 2000 nM, above 300 nM and 1420 nM.
Regarding `Cc1cccc(NC(=O)NCc2ccc3c(c2)C(=O)N(C2CCC(=O)NC2=O)C3)c1C` (stereo not shown) [Compound 44], the EC50 in assay [1] is above 10000 nM; in assay [2], above 2000 nM. For the same molecule, the DC50 on GSPT1 (setting [4]) was above 300 nM. Besides, the IC50 in assay [3] is 747 nM.
With `O=C1CCC(N2Cc3ccc(CNC(=O)Nc4ccc(OC(F)(F)F)cc4)cc3C2=O)C(=O)N1` (stereo not shown) [Compound 77], in assay [1], the EC50 was above 10000 nM. In addition, the DC50 at GSPT1 (setting [4]) was at most 100 nM. In addition, the IC50 in assay [3] stood at 570 nM.
Consider `COc1cc(C)c(Cl)cc1NC(=O)NCc1ccc2c(c1)C(=O)N(C1CCC(=O)NC1=O)C2` (stereo not shown) [Compound 76], for which the EC50 in assay [1] is above 10000 nM. Further, at GSPT1 (setting [4]), the DC50 was at most 100 nM. The IC50 in assay [3] turned out to be 281 nM.
The matching figures for `Cc1cc(Cl)c(NC(=O)NCc2ccc3c(c2)C(=O)N(C2CCC(=O)NC2=O)C3)cc1Cl` (stereo not shown) [Compound 78]: above 10000 nM, at most 100 nM and 725 nM.
As to `CN(C)c1cccc(NC(=O)NCc2ccc3c(c2)C(=O)N(C2CCC(=O)NC2=O)C3)c1` (stereo not shown) [Compound 89], the DC50 is 198 nM on GSPT1 (GSPT1 degradation, read-out: DC50) and 100 to 300 nM at GSPT1 (setting [4]). Besides, in assay [3], the IC50 stood at 225 nM.
For `O=C1CCC(N2Cc3ccc(CNC(=O)Nc4cc(OC(F)(F)F)ccn4)cc3C2=O)C(=O)N1` (stereo not shown) [Compound 164], on GSPT1 (setting [4]), the DC50 was above 300 nM. Besides, the IC50 in assay [3] turned out to be 1600 nM.
`Cc1ccc(NC(=O)NCc2ccc3c(c2)C(=O)N(C2CCC(=O)NC2=O)C3)cc1OC(F)F` (stereo not shown) [Compound 159]: the DC50 on GSPT1 (setting [4]) is above 300 nM. Also, the IC50 in assay [3] amounted to 676 nM.
With `Cn1cc(NC(=O)NCc2ccc3c(c2)C(=O)N(C2CCC(=O)NC2=O)C3)cn1` (stereo not shown) [Compound 83], the DC50 at GSPT1 (setting [4]) was above 300 nM. Further, the IC50 in assay [3] was 387 nM.
The matching figures for `O=C1CCC(N2Cc3ccc(CNC(=O)Nc4cn[nH]c4)cc3C2=O)C(=O)N1` (stereo not shown) [Compound 108]: above 300 nM and 661 nM.
For `Cc1cc(Cl)c(NC(=O)NCc2ccc3c(c2)C(=O)N(C2CCC(=O)NC2=O)C3)c(C)c1Cl` (stereo not shown) [Compound 96], in that order: above 300 nM and 222 nM.
For the molecule `COCCOc1cc(NC(=O)NCc2ccc3c(c2)C(=O)N(C2CCC(=O)NC2=O)C3)cc(Cl)c1C` (stereo not shown) [Compound 125], the DC50 on GSPT1 (setting [4]) was at most 100 nM. In assay [3], the IC50 amounted to 596 nM.
As for `Cc1c(Cl)cc(NC(=O)NCc2ccc3c(c2)C(=O)N(C2CCC(=O)NC2=O)C3)cc1C[C@H]1CO[C@@H](C)OC1` (stereo partly shown) [Compound 145], the DC50 on GSPT1 (setting [4]) is at most 100 nM. In assay [3], the IC50 was 741 nM.
As to `Cc1c(Cl)cc(NC(=O)NCc2ccc3c(c2)C(=O)N(C2CCC(=O)NC2=O)C3)cc1C=O` (stereo not shown) [Compound 156], the DC50 at GSPT1 (setting [4]) was above 300 nM. Besides, the IC50 in assay [3] is 607 nM.
For `O=C1CCC(N2Cc3ccc(CNC(=O)Nc4ccncc4)cc3C2=O)C(=O)N1` (stereo not shown) [Compound 104], at GSPT1 (setting [4]), the DC50 is above 300 nM. Moreover, the 50% inhibitory concentration (IC50) in assay [3] was 234 nM.
As to `CN1CCC(COc2cc(Cl)cc(NC(=O)NCc3ccc4c(c3)C(=O)N(C3CCC(=O)NC3=O)C4)c2)C1` (stereo not shown) [Compound 161], the DC50 at GSPT1 (setting [4]) is above 300 nM. Moreover, the IC50 in assay [3] amounted to 300 nM.
For `CN1CCC(Oc2cc(Cl)cc(NC(=O)NCc3ccc4c(c3)C(=O)N(C3CCC(=O)NC3=O)C4)c2)C1` (stereo not shown) [Compound 162], in that order: above 300 nM and 699 nM.
Consider `Cc1cc(NC(=O)NCc2ccc3c(c2)C(=O)N(C2CCC(=O)NC2=O)C3)cc(C)n1` (stereo not shown) [Compound 158], for which the DC50 on GSPT1 (setting [4]) was above 300 nM. The IC50 in assay [3] amounted to 1440 nM.
Take `Cc1c(Cl)cc(NC(=O)NCc2ccc3c(c2)C(=O)N(C2CCC(=O)NC2=O)C3)cc1C[C@H]1CO[C@H](C)OC1` (stereo partly shown) [Compound 141]: the 50% degradation concentration (DC50) at GSPT1 (setting [4]) was at most 100 nM. Also, the IC50 in assay [3] came out at 352 nM.
